“And” between values parts separate entries of the source, which are not always exact repeats. Identical values can stand only once. Numbers after ± are expanded uncertainties.
Details: Gas

## O=C(C(F)(F)C(F)(F)F)C(F)(C(F)(F)F)C(F)(F)F [dodecafluoro-2-methylpentan-3-one]
453.04 K, 2349 kPa, transient hot wire
  thermal conductivity: 0.03749 ± 0.0023 W/m/K
453.05 K, 2432 kPa, transient hot wire
  thermal conductivity: 0.03632 ± 0.00086 W/m/K
453.06 K, 2213 kPa, transient hot wire
  thermal conductivity: 0.03787 ± 0.0023 W/m/K
453.06 K, 2283 kPa, transient hot wire
  thermal conductivity: 0.039 ± 0.0024 W/m/K
453.07 K, 2432 kPa, transient hot wire
  thermal conductivity: 0.03565 ± 0.00085 W/m/K
453.08 K, 2213 kPa, transient hot wire
  thermal conductivity: 0.03857 ± 0.0024 W/m/K and 0.03787 ± 0.0023 W/m/K
453.09 K, 2350 kPa, transient hot wire
  thermal conductivity: 0.03794 ± 0.0023 W/m/K and 0.03775 ± 0.0023 W/m/K
453.11 K, 2432 kPa, transient hot wire
  thermal conductivity: 0.03612 ± 0.00087 W/m/K and 0.03616 ± 0.00087 W/m/K
453.11 K, 2570 kPa, transient hot wire
  thermal conductivity: 0.03577 ± 0.00085 W/m/K and 0.03583 ± 0.00085 W/m/K
453.11 K, 2808 kPa, transient hot wire
  thermal conductivity: 0.03624 ± 0.00086 W/m/K and 0.03614 ± 0.00086 W/m/K
453.14 K, 2350 kPa, transient hot wire
  thermal conductivity: 0.03841 ± 0.0024 W/m/K and 0.03851 ± 0.0024 W/m/K
453.15 K, 2570 kPa, transient hot wire
  thermal conductivity: 0.0359 ± 0.00085 W/m/K
453.16 K, 2433 kPa, transient hot wire
  thermal conductivity: 0.03632 ± 0.00087 W/m/K
453.17 K, 2136 kPa, transient hot wire
  thermal conductivity: 0.03394 ± 0.0021 W/m/K and 0.03367 ± 0.0021 W/m/K
453.17 K, 2432 kPa, transient hot wire
  thermal conductivity: 0.03641 ± 0.00086 W/m/K
453.17 K, 2808 kPa, transient hot wire
  thermal conductivity: 0.03589 ± 0.00085 W/m/K
453.19 K, 5686 kPa, transient hot wire
  thermal conductivity: 0.04064 ± 0.00096 W/m/K
453.21 K, 2136 kPa, transient hot wire
  thermal conductivity: 0.03328 ± 0.0021 W/m/K
453.21 K, 2570 kPa, transient hot wire
  thermal conductivity: 0.03619 ± 0.00086 W/m/K
453.21 K, 3282 kPa, transient hot wire
  thermal conductivity: 0.03735 ± 0.00089 W/m/K
453.21 K, 3283 kPa, transient hot wire
  thermal conductivity: 0.03693 ± 0.00088 W/m/K
453.22 K, 2136 kPa, transient hot wire
  thermal conductivity: 0.03435 ± 0.0021 W/m/K
453.22 K, 2432 kPa, transient hot wire
  thermal conductivity: 0.03662 ± 0.00087 W/m/K
453.22 K, 2570 kPa, transient hot wire
  thermal conductivity: 0.03586 ± 0.00085 W/m/K
453.22 K, 2810 kPa, transient hot wire
  thermal conductivity: 0.03611 ± 0.00086 W/m/K
453.23 K, 2433 kPa, transient hot wire
  thermal conductivity: 0.03706 ± 0.00088 W/m/K
453.23 K, 2810 kPa, transient hot wire
  thermal conductivity: 0.03619 ± 0.00086 W/m/K
453.23 K, 8482 kPa, transient hot wire
  thermal conductivity: 0.04362 ± 0.001 W/m/K
453.24 K, 8482 kPa, transient hot wire
  thermal conductivity: 0.04354 ± 0.001 W/m/K
453.26 K, 5649 kPa, transient hot wire
  thermal conductivity: 0.04056 ± 0.00096 W/m/K
453.27 K, 3283 kPa, transient hot wire
  thermal conductivity: 0.03745 ± 0.00089 W/m/K
453.27 K, 5649 kPa, transient hot wire
  thermal conductivity: 0.04057 ± 0.00096 W/m/K
453.28 K, 2570 kPa, transient hot wire
  thermal conductivity: 0.03618 ± 0.00086 W/m/K
453.29 K, 2570 kPa, transient hot wire
  thermal conductivity: 0.03626 ± 0.00086 W/m/K
453.29 K, 2810 kPa, transient hot wire
  thermal conductivity: 0.03632 ± 0.00086 W/m/K
453.29 K, 4172 kPa, transient hot wire
  thermal conductivity: 0.03871 ± 0.00092 W/m/K
453.29 K, 4174 kPa, transient hot wire
  thermal conductivity: 0.03872 ± 0.00092 W/m/K
453.3 K, 2810 kPa, transient hot wire
  thermal conductivity: 0.03661 ± 0.00087 W/m/K
453.33 K, 2570 kPa, transient hot wire
  thermal conductivity: 0.03666 ± 0.00088 W/m/K
453.33 K, 3284 kPa, transient hot wire
  thermal conductivity: 0.03713 ± 0.00088 W/m/K
453.34 K, 1996 kPa, transient hot wire
  thermal conductivity: 0.03032 ± 0.0019 W/m/K
453.34 K, 3284 kPa, transient hot wire
  thermal conductivity: 0.03709 ± 0.00088 W/m/K
453.34 K, 5678 kPa, transient hot wire
  thermal conductivity: 0.04058 ± 0.00096 W/m/K
453.34 K, 5680 kPa, transient hot wire
  thermal conductivity: 0.0407 ± 0.00097 W/m/K
453.36 K, 1997 kPa, transient hot wire
  thermal conductivity: 0.02939 ± 0.0018 W/m/K
453.36 K, 2570 kPa, transient hot wire
  thermal conductivity: 0.03639 ± 0.00087 W/m/K
453.36 K, 2811 kPa, transient hot wire
  thermal conductivity: 0.03631 ± 0.00086 W/m/K
453.37 K, 8482 kPa, transient hot wire
  thermal conductivity: 0.04354 ± 0.001 W/m/K
453.38 K, 8480 kPa, transient hot wire
  thermal conductivity: 0.0435 ± 0.001 W/m/K
453.39 K, 4177 kPa, transient hot wire
  thermal conductivity: 0.03877 ± 0.00092 W/m/K
453.4 K, 3286 kPa, transient hot wire
  thermal conductivity: 0.03741 ± 0.00089 W/m/K
453.4 K, 5646 kPa, transient hot wire
  thermal conductivity: 0.04064 ± 0.00096 W/m/K
453.4 K, 13124 kPa, transient hot wire
  thermal conductivity: 0.04703 ± 0.0011 W/m/K and 0.04697 ± 0.0011 W/m/K
453.41 K, 3285 kPa, transient hot wire
  thermal conductivity: 0.03741 ± 0.00089 W/m/K
453.41 K, 5645 kPa, transient hot wire
  thermal conductivity: 0.04067 ± 0.00096 W/m/K
453.42 K, 1998 kPa, transient hot wire
  thermal conductivity: 0.02991 ± 0.0018 W/m/K and 0.02978 ± 0.0018 W/m/K
453.46 K, 20262 kPa, transient hot wire
  thermal conductivity: 0.05129 ± 0.0012 W/m/K
453.48 K, 3286 kPa, transient hot wire
  thermal conductivity: 0.03719 ± 0.00088 W/m/K
453.48 K, 5676 kPa, transient hot wire
  thermal conductivity: 0.04078 ± 0.00097 W/m/K
453.48 K, 20262 kPa, transient hot wire
  thermal conductivity: 0.05134 ± 0.0012 W/m/K
453.49 K, 4182 kPa, transient hot wire
  thermal conductivity: 0.03866 ± 0.00092 W/m/K
453.49 K, 5674 kPa, transient hot wire
  thermal conductivity: 0.04064 ± 0.00096 W/m/K
453.49 K, 8479 kPa, transient hot wire
  thermal conductivity: 0.04353 ± 0.001 W/m/K
453.5 K, 4184 kPa, transient hot wire
  thermal conductivity: 0.03869 ± 0.00092 W/m/K
453.5 K, 31253 kPa, transient hot wire
  thermal conductivity: 0.05652 ± 0.0014 W/m/K
453.51 K, 8480 kPa, transient hot wire
  thermal conductivity: 0.04354 ± 0.001 W/m/K
453.51 K, 31255 kPa, transient hot wire
  thermal conductivity: 0.05656 ± 0.0014 W/m/K
453.52 K, 1999 kPa, transient hot wire
  thermal conductivity: 0.03046 ± 0.0019 W/m/K
453.52 K, 13123 kPa, transient hot wire
  thermal conductivity: 0.04703 ± 0.0011 W/m/K
453.53 K, 13124 kPa, transient hot wire
  thermal conductivity: 0.04696 ± 0.0011 W/m/K
453.54 K, 5643 kPa, transient hot wire
  thermal conductivity: 0.04051 ± 0.00096 W/m/K
453.55 K, 47061 kPa, transient hot wire
  thermal conductivity: 0.06271 ± 0.0016 W/m/K
453.56 K, 1718 kPa, transient hot wire
  thermal conductivity: 0.02564 ± 0.0016 W/m/K
453.58 K, 1718 kPa, transient hot wire
  thermal conductivity: 0.02573 ± 0.0016 W/m/K
453.6 K, 4188 kPa, transient hot wire
  thermal conductivity: 0.03889 ± 0.00092 W/m/K
453.6 K, 46969 kPa, transient hot wire
  thermal conductivity: 0.06282 ± 0.0016 W/m/K
453.6 K, 46979 kPa, transient hot wire
  thermal conductivity: 0.06275 ± 0.0016 W/m/K
453.62 K, 4187 kPa, transient hot wire
  thermal conductivity: 0.03872 ± 0.00092 W/m/K
453.62 K, 20261 kPa, transient hot wire
  thermal conductivity: 0.05127 ± 0.0012 W/m/K
453.62 K, 20264 kPa, transient hot wire
  thermal conductivity: 0.05121 ± 0.0012 W/m/K
453.63 K, 5670 kPa, transient hot wire
  thermal conductivity: 0.04057 ± 0.00096 W/m/K
453.63 K, 5671 kPa, transient hot wire
  thermal conductivity: 0.04054 ± 0.00096 W/m/K
453.63 K, 31252 kPa, transient hot wire
  thermal conductivity: 0.05654 ± 0.0014 W/m/K
453.64 K, 526 kPa, hot wire
  thermal conductivity: 0.02431 ± 0.0011 W/m/K
